Experimental data reported in the supplement of paper PMC10307832.

How the values were obtained:
[1] = compound: CN1CCN(CC1)C2=CC(=C(C=C2)NC3=NC=C4C(=N3)N(C5=CC=CC=C5C(=O)N4C)C)OC [XMD8-85] + CC(=O)Nc1cccc(-n2c(=O)n(C3CC3)c(=O)c3c(Nc4ccc(I)cc4F)n(C)c(=O)c(C)c32)c1 [Trametinib] (partner 0.02 µM); assay: relative viability (nuclei count vs DMSO), 5 days (fraction); higher = more cells survive
Method in brief: (§1)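 Dosing by pin tool came one day after lung cancer cell lines were seeded in 1536-well plates, using either one drug or a fixed anchor-drug dose plus five library-drug doses (not always all listed) in √10 steps. After 5 days, nuclei were counted on 4× images. Relative viability is treated-well nuclei count divided by vehicle-well nuclei count, and values are medians of duplicate plates.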

[2] = compound: O=C(O)C(Cc1ccccc1[N+](=O)[O-])=NNc1nc(-c2ccc(Cl)c(Cl)c2)cs1 (mixture of isomers) [4EGI-1] + Cc1nc(Nc2ncc(C(=O)Nc3c(C)cccc3Cl)s2)cc(N2CCN(CCO)CC2)n1 [Dasatinib] (partner 0.075 µM); assay: as above
Method in brief: as §1

| Cell Line | relative viability ([1]; first compound 0.08 µM) | relative viability ([1]; first compound 0.253 µM) | relative viability ([1]; first compound 0.8 µM) | relative viability ([1]; first compound 2.53 µM) | relative viability ([1]; first compound 8 µM) | relative viability ([2]; first compound 0.5 µM) | relative viability ([2]; first compound 5 µM) | relative viability ([2]; first compound 15.81 µM) | relative viability ([2]; first compound 50 µM) | relative viability ([2]; first compound 1.581 µM) |
| --- | --- | --- | --- | --- | --- | --- | --- | --- | --- | --- |
| LC-2-ad | 0.93 | 0.914 | 0.955 | 0.997 | 0.458 | 0.697 | 0.651 | 0.199 | 0.161 |  |
| LCLC-97TM1 | 0.178 | 0.174 | 0.218 | 0.153 | 0.116 | 0.733 | 0.873 | 0.878 | 0.739 | 0.708 |
| SW 900 | 0.813 | 0.746 | 0.935 |  | 0.759 | 0.641 | 0.528 | 0.487 | 0.547 |  |
| NCI-H460 | 0.176 | 0.122 | 0.2 | 0.133 | 0.055 | 0.447 | 0.515 | 0.307 | 0.0847 |  |
| UMC-11 | 0.723 | 0.738 | 0.696 | 0.683 | 0.403 | 0.502 | 0.406 | 0.415 | 0.208 | 0.462 |
| HCC-827 | 0.55 | 0.461 | 0.528 | 0.512 | 0.496 | 0.346 | 0.345 | 0.127 | 0.261 | 0.246 |
| 201T | 0.718 | 0.746 | 0.738 | 0.681 | 0.617 | 0.574 | 0.581 | 0.568 | 0.318 | 0.551 |
| NCI-H1755 | 0.801 | 0.857 | 0.745 | 0.876 | 0.758 | 0.503 | 0.424 | 0.412 | 0.288 | 0.428 |
| NCI-H1944 | 0.388 | 0.453 | 0.462 | 0.462 | 0.369 | 0.22 | 0.199 | 0.172 | 0.135 |  |
| NCI-H1623 |  |  |  |  |  | 0.507 | 0.575 | 0.437 | 0.414 | 0.446 |
| NCI-H1563 |  |  |  |  |  | 0.441 | 0.441 | 0.494 | 0.424 | 0.435 |
| NCI-H1666 | 0.918 | 0.868 | 0.852 | 0.947 | 0.794 | 0.838 | 0.834 | 0.566 | 0.374 | 0.717 |
| LCLC-103H | 0.728 | 0.637 | 0.683 | 0.676 | 0.522 | 0.531 | 0.503 | 0.523 | 0.236 | 0.503 |
| NCI-H1734 | 0.654 | 0.712 | 0.704 | 0.604 | 0.519 | 0.562 | 0.46 | 0.396 | 0.218 | 0.415 |
| HOP-62 | 0.368 | 0.378 | 0.34 | 0.339 | 0.129 | 0.796 | 0.668 | 0.568 | 0.473 | 0.587 |
| HCC-15 | 0.396 | 0.315 | 0.408 | 0.408 | 0.287 | 0.642 | 0.612 | 0.511 | 0.308 |  |
| NCI-H2405 | 0.572 | 0.597 | 0.637 | 0.647 | 0.628 | 0.204 | 0.225 | 0.211 | 0.172 | 0.228 |
| NCI-H1793 |  | 0.483 | 0.37 | 0.481 | 0.442 | 0.349 | 0.38 | 0.374 | 0.347 | 0.364 |

| Cell Line | relative viability ([1]; first compound 0.08 µM) | relative viability ([1]; first compound 0.253 µM) | relative viability ([1]; first compound 0.8 µM) | relative viability ([1]; first compound 2.53 µM) | relative viability ([1]; first compound 8 µM) | relative viability ([2]; first compound 0.5 µM) | relative viability ([2]; first compound 5 µM) | relative viability ([2]; first compound 15.81 µM) | relative viability ([2]; first compound 50 µM) | relative viability ([2]; first compound 1.581 µM) |
| --- | --- | --- | --- | --- | --- | --- | --- | --- | --- | --- |
| EKVX | 0.56 | 0.327 | 0.437 | 0.47 | 0.374 | 0.529 | 0.443 | 0.298 | 0.19 | 0.641 |
| COR-L23 | 0.488 | 0.548 | 0.651 | 0.548 | 0.333 | 0.578 | 0.483 | 0.307 | 0.141 | 0.207 |
| SW 1573 | 0.542 | 0.522 | 0.594 | 0.427 | 0.262 | 0.7 | 0.593 | 0.234 | 0.0967 | 0.254 |
| NCI-H1648 | 0.493 | 0.416 | 0.397 | 0.337 | 0.354 |  |  |  |  |  |
| COR-L 105 | 0.432 | 0.465 | 0.433 | 0.506 | 0.437 | 0.357 | 0.326 | 0.235 | 0.248 | 0.335 |
| NCI-H2023 | 0.515 | 0.535 | 0.685 | 0.557 | 0.284 | 0.599 | 0.605 | 0.226 | 0.0859 |  |
| NCI-H1355 | 0.414 | 0.424 | 0.384 | 0.356 | 0.284 | 0.786 | 0.682 | 0.497 | 0.349 | 0.64 |
| NCI-H1975 | 0.37 | 0.376 | 0.334 | 0.361 | 0.268 | 0.372 | 0.302 | 0.282 | 0.249 | 0.363 |
| EPLC-272H | 0.276 | 0.271 | 0.272 | 0.313 | 0.251 | 0.504 | 0.34 | 0.252 | 0.138 |  |
| NCI-H1915 | 0.328 | 0.309 | 0.251 | 0.478 | 0.282 | 0.358 | 0.314 | 0.311 | 0.163 | 0.257 |
| LXF-289 | 0.658 | 0.646 | 0.696 | 0.728 | 0.656 | 0.282 | 0.249 | 0.188 | 0.102 | 0.215 |
| LK-2 | 0.858 | 0.611 | 0.538 | 0.448 | 0.312 | 0.253 | 0.309 | 0.254 | 0.134 |  |
| H3255 | 0.576 | 0.593 | 0.465 | 0.554 | 0.373 | 0.361 | 0.412 | 0.324 | 0.322 | 0.321 |
| NCI-H2087 | 0.17 | 0.203 | 0.19 | 0.19 | 0.172 | 0.837 | 0.918 | 0.493 | 0.27 | 0.676 |
| EMC-BAC-2 | 0.901 | 0.879 | 0.895 | 0.828 | 0.67 | 0.369 | 0.361 | 0.362 | 0.296 | 0.298 |
| NCI-H2126 | 0.584 | 0.6 | 0.615 | 0.538 | 0.398 | 0.673 | 0.629 | 0.383 | 0.309 |  |
| NCI-H441 | 0.4 | 0.427 | 0.463 | 0.494 | 0.234 | 0.609 | 0.536 | 0.565 | 0.229 | 0.547 |
